Assay results from ChEMBL document CHEMBL1132006, “Synthesis and biological evaluation of coumarincarboxylic acids as inhibitors of gyrase B. L-rhamnose as an effective substitute for L-noviose” (1999).
Converted amounts (≈) assume the structure as drawn.

Experiments:
Enterococcus faecium = assay: In vitro antibacterial activity against Enterococcus faecium 02D31P2 VanTeiEry-R strain; format: functional
[1] = tested on: Staphylococcus epidermidis; assay: In vitro antibacterial activity against Staphylococcus epidermidis 012GO39 OxaTei-R strain; format: functional
Staphylococcus aureus [2] = assay: In vitro antibacterial activity against Staphylococcus aureus 011GO76 OfloOxaEry-R strain; format: functional
Staphylococcus aureus [3] = assay: In vitro antibacterial activity against Staphylococcus aureus 011HT1 Nov-R strain; format: functional
Staphylococcus aureus [4] = assay: In vitro antibacterial activity against Staphylococcus aureus 011HT3 strain; format: functional
Streptococcus pyogenes = assay: In vitro antibacterial activity against Streptococcus pyogenes O2A1UC1 strain

Row | Compound | MIC (Enterococcus faecium) [µg/mL] | MIC [1] [µg/mL] | MIC (Staphylococcus aureus [2]) [µg/mL] | MIC (Staphylococcus aureus [3]) [µg/mL] | MIC (Staphylococcus aureus [4]) [µg/mL] | MIC (Streptococcus pyogenes) [µg/mL]
1 | CCCCCCCc1cc(O[C@@H]2O[C@@H](C)[C@H](OC)[C@@H](OC(=O)c3ccc(C)[nH]3)[C@H]2O)c(C)c2oc(=O)c(C(=O)NS(=O)(=O)c3ccccc3)cc12 | 2.5 (≈ 3.45 µM) | 0.6 (≈ 0.828 µM) | 0.6 (≈ 0.828 µM) | 2.5 (≈ 3.45 µM) | 0.15 (≈ 0.207 µM) | 0.3 (≈ 0.414 µM)
2 | CCCCCCCCCCCCc1cc(O[C@@H]2O[C@@H](C)[C@H](OC)[C@@H](OC(=O)c3ccc(C)[nH]3)[C@H]2O)c(C)c2oc(=O)c(C(=O)O)cc12 | > 40 | 40 (≈ 61 µM) | 5 (≈ 7.62 µM) | > 40 | 0.08 (≈ 0.122 µM) | 0.3 (≈ 0.457 µM)
3 | CO[C@@H]1[C@@H](OC(=O)c2ccc(C)[nH]2)[C@@H](O)[C@H](Oc2ccc3c(C(=O)O)cc(=O)oc3c2C)O[C@H]1C | > 40 | > 40 | > 40 | > 40 | > 40 | > 40
4 | CO[C@@H]1[C@@H](OC(=O)c2ccc(C)[nH]2)[C@@H](O)[C@H](Oc2ccc3c(C)c(CC(=O)O)c(=O)oc3c2C)O[C@H]1C | > 40 | > 40 | > 40 | > 40 | > 40 | 40 (≈ 77.6 µM)
5 | COC(=O)Cc1cc(=O)oc2cc(O[C@@H]3O[C@@H](C)[C@H](OC)[C@@H](OC(=O)c4ccc(C)[nH]4)[C@H]3O)ccc12 | > 40 | > 40 | > 40 | > 40 | > 40 | > 40
6 | CO[C@@H]1[C@@H](OC(N)=O)[C@@H](O)[C@H](Oc2ccc3c(O)c(NC(=O)c4ccc(O)c(CC=C(C)C)c4)c(=O)oc3c2C)OC1(C)C [NOVOBIOCIN] | 0.3 (≈ 0.49 µM) | 0.08 (≈ 0.131 µM) | < 0.04 | 20 (≈ 32.6 µM) | < 0.04 | 0.15 (≈ 0.245 µM)
7 | CO[C@@H]1[C@@H](OC(=O)c2ccc(C)[nH]2)[C@@H](O)[C@H](Oc2ccc3cc(C(=O)O)c(=O)oc3c2C)O[C@H]1C | > 40 | > 40 | > 40 | > 40 | > 40 | 40 (≈ 82.1 µM)
8 | CCCCCc1cc(O[C@@H]2OC(C)(C)[C@H](OC)[C@@H](OC(=O)c3ccc(C)[nH]3)[C@H]2O)c(C)c2oc(=O)c(C(=O)O)cc12 | 0.3 (≈ 0.525 µM) | < 0.04 | 0.15 (≈ 0.262 µM) | 2.5 (≈ 4.37 µM) | < 0.04 | < 0.04
9 | CO[C@@H]1[C@@H](OC(=O)c2ccc(C)[nH]2)[C@@H](O)[C@H](Oc2ccc3c(O)c(NC(=O)c4ccc(O)c(CC=C(C)C)c4)c(=O)oc3c2Cl)OC1(C)C [CHLOROBIOCIN] |  | < 0.04 | < 0.04 | 0.15 (≈ 0.215 µM) | < 0.04 | < 0.04
10 | CO[C@@H]1[C@@H](OC(=O)c2ccc(C)[nH]2)[C@@H](O)[C@H](Oc2ccc3c(CC(=O)O)cc(=O)oc3c2C)O[C@H]1C | > 40 | 10 (≈ 19.9 µM) | 40 (≈ 79.8 µM) | > 40 | 10 (≈ 19.9 µM) | > 40

The remaining lines, values ahead:

Row | MIC (Enterococcus faecium) [µg/mL] | MIC [1] [µg/mL] | MIC (Staphylococcus aureus [2]) [µg/mL] | MIC (Staphylococcus aureus [3]) [µg/mL] | MIC (Staphylococcus aureus [4]) [µg/mL] | MIC (Streptococcus pyogenes) [µg/mL] | Compound
11 | > 40 | 2.5 (≈ 4.85 µM) | 5 (≈ 9.7 µM) | > 40 | 2.5 (≈ 4.85 µM) | 10 (≈ 19.4 µM) | CO[C@@H]1[C@@H](OC(=O)c2ccc(C)[nH]2)[C@@H](O)[C@H](Oc2ccc3c(CC(=O)O)cc(=O)oc3c2C)OC1(C)C
12 | > 40 | > 40 | > 40 | > 40 | > 40 | 40 (≈ 75.5 µM) | CO[C@@H]1[C@@H](OC(=O)c2ccc(C)[nH]2)[C@@H](O)[C@H](Oc2ccc3c(C)c(CCC(=O)O)c(=O)oc3c2C)O[C@H]1C
13 | 0.6 (≈ 1.02 µM) | 0.3 (≈ 0.512 µM) | 0.3 (≈ 0.512 µM) | 5 (≈ 8.54 µM) | 0.08 (≈ 0.137 µM) | 0.3 (≈ 0.512 µM) | CCCCCCCc1cc(O[C@@H]2O[C@@H](C)[C@H](OC)[C@@H](OC(=O)c3ccc(C)[nH]3)[C@H]2O)c(C)c2oc(=O)c(C(=O)O)cc12
14 | > 40 | 10 (≈ 18.9 µM) | 40 (≈ 75.5 µM) | > 40 | 10 (≈ 18.9 µM) | > 40 | CCCc1cc(O[C@@H]2O[C@@H](C)[C@H](OC)[C@@H](OC(=O)c3ccc(C)[nH]3)[C@H]2O)c(C)c2oc(=O)c(C(=O)O)cc12
15 | > 40 | > 40 | > 40 | > 40 | > 40 | > 40 | CO[C@@H]1[C@@H](OC(=O)c2ccc(C)[nH]2)[C@@H](O)[C@H](Oc2ccc3c(CC(=O)O)cc(=O)oc3c2)O[C@H]1C
16 | 2.5 (≈ 4.48 µM) | 0.6 (≈ 1.08 µM) | 2.5 (≈ 4.48 µM) | 20 (≈ 35.9 µM) | 0.6 (≈ 1.08 µM) | 1.2 (≈ 2.15 µM) | CCCCCc1cc(O[C@@H]2O[C@@H](C)[C@H](OC)[C@@H](OC(=O)c3ccc(C)[nH]3)[C@H]2O)c(C)c2oc(=O)c(C(=O)O)cc12
17 | 20 (≈ 34.6 µM) | 2.5 (≈ 4.33 µM) | 5 (≈ 8.66 µM) | > 40 | 2.5 (≈ 4.33 µM) | 5 (≈ 8.66 µM) | CO[C@@H]1[C@@H](OC(=O)c2ccc(C)[nH]2)[C@@H](O)[C@H](Oc2cc(Cc3ccccc3)c3cc(C(=O)O)c(=O)oc3c2C)O[C@H]1C
